The text below walks through data of ChEMBL document CHEMBL3826894, “Structural modification of luteolin from Flos Chrysanthemi leads to increased tumor cell growth inhibitory activity” (Bioorg Med Chem Lett, 2016).

Assay [1] can be described thus: Cytotoxicity against human HL60 cells assessed as inhibition of cell growth at 100 uM after 72 hrs by MTT assay. The format is functional. The note with it: HL-60, 72 h, read-out: GI.
Assay [2] in a line: Cytotoxicity against human HL60 cells assessed as reduction in cell viability after 72 hrs by MTT assay. The assay is classed as functional, cell-based. The note with it: HL-60, 72 h. For orientation: Formazan colour is commonly taken as a measure of viable cells.
Assay [3] addresses T1, Apoptosis regulator Bcl-2 (Homo sapiens, UniProt P10415). In words: Inhibition of Bcl-2 (unknown origin) using FAM-Bid peptide as substrate at 50 uM by fluorescence polarization-based assay.
For assay [4], the target named is T1, Apoptosis regulator Bcl-2. In words: Inhibition of Bcl-2 (unknown origin) using FAM-Bid peptide as substrate by fluorescence polarization-based assay.
Assay [5] concerns the target T2, Bcl-2-like protein 1 (Homo sapiens, UniProt Q07817). The assay is described as follows: Inhibition of Bcl-XL (unknown origin) using FAM-Bid peptide as substrate at 50 uM by fluorescence polarization-based assay.
Assay [6] deals with T2, Bcl-2-like protein 1. In words: Inhibition of Bcl-XL (unknown origin) using FAM-Bid peptide as substrate by fluorescence polarization-based assay. A general note: In fluorescence polarisation assays a small probe gives low polarisation when free and higher when bound to something large.
Assay [7] relates to HEK293. In words: Cytotoxicity against human HEK293 cells assessed as reduction in cell viability after 72 hrs by MTT assay. The conditions noted are these: HEK293, 72 h. The format is cell-based.

T2 sequence (Q07817 whole entry): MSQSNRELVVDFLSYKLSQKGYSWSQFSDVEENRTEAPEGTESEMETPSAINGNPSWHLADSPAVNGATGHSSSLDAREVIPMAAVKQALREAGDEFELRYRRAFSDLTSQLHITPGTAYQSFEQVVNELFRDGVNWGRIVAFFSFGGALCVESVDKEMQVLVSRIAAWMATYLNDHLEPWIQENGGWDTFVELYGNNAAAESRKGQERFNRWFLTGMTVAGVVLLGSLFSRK
T1 sequence (P10415 whole entry): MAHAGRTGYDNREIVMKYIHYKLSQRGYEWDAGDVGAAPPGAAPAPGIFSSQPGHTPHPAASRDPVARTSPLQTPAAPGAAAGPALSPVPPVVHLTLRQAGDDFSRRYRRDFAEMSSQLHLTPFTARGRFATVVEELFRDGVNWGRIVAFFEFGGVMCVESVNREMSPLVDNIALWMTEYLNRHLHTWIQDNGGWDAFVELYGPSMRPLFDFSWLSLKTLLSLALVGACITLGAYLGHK

Broadly, the IC50 is the concentration that inhibits the measured activity by half. Take `O=c1cc(-c2cc(O)c(O)c(Cc3ccccc3)c2)oc2cc(O)cc(O)c12`: the inhibition of growth at 100 µM in assay [1] amounted to 78%. In addition, the IC50 in assay [2] worked out at 44 µM.
In the case of `COc1cc(O)c2c(=O)cc(-c3cc(O)c(O)cc3Cc3ccccc3C)oc2c1`, the inhibition of growth at 100 µM in assay [1] was found to be 90.2%. Besides, the half-maximal inhibitory concentration (IC50) in assay [2] was found to be 14.9 µM.
One may read the inhibition as the share of the control response that was lost under treatment. By Ki is commonly meant a dissociation constant, usually derived from enzyme kinetics or from competition with a known ligand. High values mean weaker binding, low ones tighter binding. On to `COc1cc(O)c2c(=O)cc(-c3cc(O)c(O)cc3Cc3ccccc3)oc2c1`, for which, in assay [1], the inhibition of growth at 100 µM was determined as 82%. Further, the half-inhibitory concentration (IC50) in assay [2] amounted to 14.9 µM. Also, the inhibition in assay [3] and in assay [5] was 100% each time. For the same compound, the inhibition constant Ki in assay [4] turned out to be 1.3 µM; in assay [6], 2.5 µM.
As for `Cc1ccc(Cc2cc(-c3cc(=O)c4c(O)cc(O)cc4o3)cc(O)c2O)cc1`, the inhibition of growth at 100 µM in assay [1] amounted to 49.1%. Also, the IC50 in assay [2] was 100 µM.
Regarding `Cc1cc2c(C(C)C)c(O)c(O)c(C=O)c2c(O)c1-c1c(C)cc2c(C(C)C)c(O)c(O)c(C=O)c2c1O` [GOSSYPOL], in assay [1], the inhibition of growth at 100 µM turned out to be 92%. The half-inhibitory concentration (IC50) in assay [2] came to 6.6 µM; in assay [7] it was 11 µM. In addition, the inhibition in assay [3] and in assay [5] was 100% in each case. Also, the Ki in assay [6] was 0.31 µM.
As to `O=c1cc(-c2cc(O)c(O)cc2Cc2ccc(Cl)cc2)oc2cc(O)cc(O)c12`, the inhibition of growth at 100 µM in assay [1] is 100%. Also, the half-inhibitory concentration (IC50) in assay [2] was determined as 7.05 µM.
`COc1cc(O)c2c(=O)cc(-c3cc(O)c(O)c(Cc4cccc(Cl)c4)c3)oc2c1`: the inhibition of growth at 100 µM in assay [1] is 85.2%. Moreover, the IC50 in assay [2] worked out at 2.92 µM.
Turning to `O=c1cc(-c2cc(O)c(O)cc2Cc2ccccc2Cl)oc2cc(O)cc(O)c12`, the inhibition of growth at 100 µM in assay [1] worked out at 73.4%. The 50% inhibitory concentration (IC50) in assay [2] is 41.8 µM.
The like results for `COc1cc(O)c2c(=O)cc(-c3cc(O)c(O)c(Cc4ccccc4)c3)oc2c1` were, in that order, 37.5% and above 100 µM.
As to `O=c1cc(-c2cc(O)c(O)cc2Cc2ccccc2)oc2cc(O)cc(O)c12`, the inhibition of growth at 100 µM in assay [1] is 80%. The 50% inhibitory concentration (IC50) in assay [2] was found to be 35.9 µM; in assay [7], 90.7 µM. For the same compound, the inhibition in assay [3] was determined as 96%; in assay [5] it was 70%. Moreover, the Ki amounted to 4.6 µM in assay [4] and 8.4 µM in assay [6].
On to `O=c1cc(-c2cc(O)c(O)cc2Cc2cccc(Cl)c2)oc2cc(O)cc(O)c12`, for which the inhibition of growth at 100 µM in assay [1] is 65.2%. Moreover, the IC50 in assay [2] came to 64.4 µM.
The like results for `COc1cc(O)c2c(=O)cc(-c3cc(O)c(O)cc3Cc3ccc(C)cc3)oc2c1` were, in that order, 96.4% and 10.9 µM.
For `Cc1ccc(Cc2cc(O)c(O)cc2-c2cc(=O)c3c(O)cc(O)cc3o2)cc1`, in assay [1], the inhibition of growth at 100 µM came out at 19.9%. In addition, the 50% inhibitory concentration (IC50) in assay [2] was above 100 µM.
The like results for `COc1cc(O)c2c(=O)cc(-c3cc(O)c(O)c(Cc4ccccc4Cl)c3)oc2c1` were, in that order, 80.8% and 13.9 µM.
On to `O=c1cc(-c2cc(O)c(O)c(Cc3ccc(Cl)cc3)c2)oc2cc(O)cc(O)c12`, for which the inhibition of growth at 100 µM in assay [1] came out at 48.6%. Moreover, in assay [2], the IC50 is above 100 µM.
As for `O=c1cc(-c2cc(O)c(O)c(Cc3ccccc3Cl)c2)oc2cc(O)cc(O)c12`, in assay [1], the inhibition of growth at 100 µM was 30.6%. Further, the IC50 in assay [2] is above 100 µM.
As for `COc1cc(O)c2c(=O)cc(-c3cc(O)c(O)cc3Cc3ccc(Cl)cc3)oc2c1`, the inhibition of growth at 100 µM in assay [1] was 92.1%. Moreover, the IC50 in assay [2] was 11.7 µM.
For the compound `COc1cc(O)c2c(=O)cc(-c3cc(O)c(O)c(Cc4ccccc4C)c3)oc2c1`, the inhibition of growth at 100 µM in assay [1] amounted to 68.9%. In addition, the IC50 in assay [2] was determined as 14.8 µM.
For `COc1cc(O)c2c(=O)cc(-c3cc(O)c(O)cc3Cc3ccccc3Cl)oc2c1`, in that order: 85.8% and 20.5 µM.
Consider `COc1cc(O)c2c(=O)cc(-c3cc(O)c(O)cc3Cc3cccc(C)c3)oc2c1`, for which the inhibition of growth at 100 µM in assay [1] is 86.1%. For the same compound, the half-maximal inhibitory concentration (IC50) in assay [2] was 9.97 µM; in assay [7] it was 74.7 µM.
Take `Cc1ccccc1Cc1cc(-c2cc(=O)c3c(O)cc(O)cc3o2)cc(O)c1O`: the inhibition of growth at 100 µM in assay [1] stood at 31.5%. The IC50 in assay [2] is above 100 µM.
Turning to `COc1cc(O)c2c(=O)cc(-c3cc(O)c(O)cc3Cc3cccc(Cl)c3)oc2c1`, the inhibition of growth at 100 µM in assay [1] was found to be 85.5%. In addition, the IC50 in assay [2] is 10.3 µM.
For `COc1cc(O)c2c(=O)cc(-c3cc(O)c(O)c(Cc4cccc(C)c4)c3)oc2c1`, in that order: 55% and 63 µM.
Consider `O=c1cc(-c2ccc(O)c(O)c2)oc2cc(O)cc(O)c12` [LUTEOLIN], for which the inhibition of growth at 100 µM in assay [1] stood at 44%. Also, the concentration for half-maximal inhibition (IC50) in assay [2] is above 100 µM. The inhibition in assay [3] was determined as 46%; in assay [5], 49%.
For the compound `Cc1cccc(Cc2cc(-c3cc(=O)c4c(O)cc(O)cc4o3)cc(O)c2O)c1`, the inhibition of growth at 100 µM in assay [1] came out at 71.9%. Besides, the IC50 in assay [2] was determined as 20.9 µM.
Regarding `O=c1cc(-c2cc(O)c(O)c(Cc3cccc(Cl)c3)c2)oc2cc(O)cc(O)c12`, in assay [1], the inhibition of growth at 100 µM amounted to 76.4%. In addition, in assay [2], the half-inhibitory concentration (IC50) was found to be 28.8 µM.
